Assay results from ChEMBL document CHEMBL3301361, “Experimental in vitro DMPK and physicochemical data on a set of publicly disclosed compounds”.
Values after ≈ are worked out from the molar mass of the structure shown.

What was measured:
in vitro [1] = conditions: human
in vitro [2] = conditions: human, plasma
physchem [3] = conditions: octan-1-ol/water
in vitro [4] = conditions: SD, HW or BN, rat, plasma
physchem [5] = conditions: pH 7.4 buffer

Structure (SMILES)	microsomal CLint (in vitro [1]; liver microsomes)	fraction unbound at 5 h (in vitro [2]; PPB)	logD (physchem [3]; pH 7.4, LogD7.4)	fraction unbound at 5 h (in vitro [4])	further results
CCCCCCc1nc2c(N)nc3ccccc3c2n1Cc1ccccc1	< 3 µL/min/mg	0.0036	–	–	–
O=C(NC1CC1)c1cc(-c2cccs2)on1	38.9 µL/min/mg	0.0768	2.54	–	–
CCCCCOc1ccc(C(=O)NC(C(=O)O)C(C)C)cc1 (stereo unspecified)	5.5 µL/min/mg	–	–	–	fraction unbound at 5 h (in vitro [2]): 0.0171
O=C(NCCc1ccc(Cl)cc1)c1cccnc1	–	–	–	0.0854	–
COc1ccc(-c2ccc3nc(N)sc3c2)cn1	7.76 µL/min/mg	0.0383	3.2	–	–
Cc1noc(C)c1-c1ccc(CNS(=O)(=O)c2c(C)noc2C)cc1	–	0.0752	–	–	microsomal CLint (in vitro [1]; microsomes): 60.3 µL/min/mg
c1nc(Cc2ccsc2)c[nH]1	–	–	–	0.371	–
N#Cc1ccc(F)c(-c2cc(C(F)(F)F)ccc2OCC(=O)O)c1	–	0.0293	-0.16	–	microsomal CLint (in vitro [1]; microsomes): < 3 µL/min/mg
CCc1ccc(OCC(=O)O)c(-c2ccc(S(C)(=O)=O)cc2)c1	–	0.0568	–	–	microsomal CLint (in vitro [1]; microsomes): < 3 µL/min/mg
CCS(=O)(=O)c1ccc(-c2cc(C(F)(F)F)ccc2O[C@@H](C)C(=O)O)c(C)c1	< 3 µL/min/mg	0.0418	–	–	–
COc1ccnc(CCc2nc3c(C)ccnc3[nH]2)c1	–	0.197	2.1	–	microsomal CLint (in vitro [1]; microsomes): < 3 µL/min/mg
CN(C)CCOC1CN(c2cc(C(=O)NC[C@H]3CC[C@H](CNC(=O)OC(C)(C)C)CC3)c3ccccc3n2)C1	–	–	–	0.129	–
Cc1ccccc1Nc1nc(N)nc(C)c1Br	–	–	–	0.0752	–
O=C(NCc1ccccc1Cl)c1cccnc1Oc1ccccc1	36 µL/min/mg	0.134	3.68	–	–
COc1ccc(OC)c(CNC(=O)c2cccnc2Oc2ccccc2)c1	43.5 µL/min/mg	0.002	3.52	–	–
Cc1ccc2c(c1)c(Sc1cccc(Cl)c1)c(C)n2CC(=O)O	12 µL/min/mg	0.0036	–	–	–
Cc1c(S(=O)(=O)c2ccc(Cl)cc2)c2cc(F)ccc2n1CC(=O)O	< 3 µL/min/mg	0.0043	-0.16	–	–
COc1cccc(S(=O)(=O)c2c(C)n(CC(=O)O)c3ccc(C)cc23)c1	3 µL/min/mg	0.0063	-0.42	–	–
CC(=O)Nc1cccc2c1c(S(=O)(=O)c1ccc(Cl)cc1)c(C)n2CC(=O)O	< 3 µL/min/mg	0.0428	–	–	–
CCN(C(=O)Cc1ccc(S(C)(=O)=O)cc1)C1CCN(CC[C@@H](c2cc(F)cc(F)c2)N2CCN(S(C)(=O)=O)CC2)CC1	–	–	1.25	–	microsomal CLint (in vitro [1]; microsomes): 7.5 µL/min/mg; solubility thermodynamic (physchem [5]): 1260 µM (≈ 807 µg/mL)
CC(C(=O)O[C@@H]1CC[N+](C)(C)C1)(c1ccccc1)C1CCCC1 (stereo partly specified)	–	–	–	0.299	–
CC(=O)N1CCN(c2nc(NCC(C)c3ccc(Cl)cc3)c3c(n2)C(=O)N(C(C)C)C3)CC1 (stereo unspecified)	–	–	–	0.142	–
CC(=O)N1CCN(c2nc(NCc3ccc(OC(F)(F)F)cc3)c3c(n2)C(=O)N(C(C)C)C3)CC1	–	–	–	0.151	–
CC(=O)N1CCN(c2nc3c(c(N(C)Cc4cc5ccccc5cn4)n2)CN(C(C)C)C3=O)CC1	–	–	–	0.339	–
Cc1cc([C@H](O)[C@](C)(OCc2ccc(-c3ccccc3)cc2)C(=O)NO)no1	15.8 µL/min/mg	0.0328	2.88	–	–

Structure (SMILES)	microsomal CLint (in vitro [1]; liver microsomes)	fraction unbound at 5 h (in vitro [2]; PPB)	logD (physchem [3]; pH 7.4, LogD7.4)	fraction unbound at 5 h (in vitro [4])	further results
CCNC(=O)Nc1sc2ccccc2c1C(=O)N1CCC(N2CCCC3(CCN(CC)C3=O)C2)CC1 (stereo unspecified)	–	–	–	0.17	–
N=C(N)c1ccc2[nH]c(-c3n[nH]c(-c4ccccc4)c3O)nc2c1	–	–	–	0.119	–
Cc1ncc(-c2cccc3c2C[C@H](NC(=O)c2ccc(OCC(F)(F)F)nc2)CO3)cn1	–	–	–	0.0768	–
OCCNC(=S)NCc1cccc(Cl)c1F	–	–	–	0.16	–
Nc1ccc2nc(SCC(=O)NC3CCN(Cc4ccc(Cl)c(Cl)c4)CC3)sc2c1	59 µL/min/mg	0.262	–	–	–
Cc1ccc2c(c1)c(-c1ccnc3c(F)cccc13)c(C)n2CC(=O)O	< 3 µL/min/mg	0.009	0.53	–	–
Cc1nccnc1-c1ccc(CC(=O)N[C@H](C)c2ccc(OCC(F)(F)F)cn2)cc1	–	–	–	0.17	–
Cc1cc(-n2cnc3ccc(N[C@@H](C)c4ncc(F)cn4)nc32)n[nH]1	–	–	–	0.483	–
CC(C)Oc1cc(-n2cnc3ccc(N[C@@H](C)c4ccc(F)cn4)nc32)n[nH]1	–	0.0581	–	–	microsomal CLint (in vitro [1]; microsomes): > 150 µL/min/mg
O=C(NCc1ccc(OC(F)(F)F)cc1)C1c2ccccc2C(=O)N1CCc1ncccn1 (stereo unspecified)	–	–	–	0.129	–
COc1ccccc1C(C#N)NC(=O)[C@@H]1CCCC[C@H]1C(=O)N1CCN(Cc2ccc(F)cc2)CC1 (stereo partly specified)	127 µL/min/mg	0.051	3.57	–	–
Cc1ccc(S(=O)(=O)N(C)C(=O)N2CCC(N3CCC(Oc4ccc(Cl)c(Cl)c4)CC3)CC2)cc1	10 µL/min/mg	0.0171	–	–	–
O=C(NS(=O)(=O)c1ccccc1Cl)N1CCC(N2CCC(Oc3ccc(Cl)c(Cl)c3)CC2)CC1	< 3 µL/min/mg	0.0307	–	–	–
COc1ccccc1S(=O)(=O)NC(=O)N1CCC(N2CCC(Oc3ccc(Cl)c(Cl)c3)CC2)CC1	< 3 µL/min/mg	0.0409	–	–	–
O=C(NC[C@@H](O)CN1CCC(Oc2ccc(Cl)c(Cl)c2)CC1)c1cc(=O)[nH]c2ccccc12	< 3 µL/min/mg	0.0183	3.48	–	solubility thermodynamic (physchem [5]): 15.8 µM (≈ 7.75 µg/mL)
C[S+]([O-])Cc1ccc(C(=O)Nc2cccnc2C(=O)NCC2CCOCC2)c2ccccc12 (stereo unspecified)	–	–	–	0.154	–
C[S+]([O-])Cc1ccc(C(=O)Nc2nccnc2C(=O)NCC2CCC2)c2ccccc12 (stereo unspecified)	–	–	–	0.0988	–
CS(=O)(=O)c1ccc(-c2nnc(/C=C/c3nnc(-c4ccc(C#N)cc4)o3)n2-c2ccccc2Cl)nc1	< 3 µL/min/mg	0.0633	2.66	–	–
Cc1ccc2[nH]ccc2c1-c1nc(N2CCOCC2)cc(C2(S(C)(=O)=O)CC2)n1	5.75 µL/min/mg	–	1.7	–	solubility thermodynamic (physchem [5]): 95.5 µM (≈ 39.4 µg/mL)
C[C@H](CO)Nc1nc(SCc2ccco2)nc2nc(N)sc12	5 µL/min/mg	0.117	–	–	–
C[C@@H](Oc1ccccc1-c1cccc([N+](=O)[O-])c1)C1=NCCN1	–	–	–	0.403	–
CC[C@H](CO)Nc1nc(SCc2ccccc2)nc2nc(N)sc12	8.71 µL/min/mg	0.013	3.27	–	–
c1ccc(-c2[nH]nc3ccccc23)cc1	–	0.0307	3.79	–	microsomal CLint (in vitro [1]; microsomes): < 3 µL/min/mg
CCOC(=O)Nc1cc2c(c(N)n1)N=C(c1ccccc1)CCN2	–	0.0544	–	–	microsomal CLint (in vitro [1]; microsomes): 66.1 µL/min/mg
COc1ccc2c(c1)c(-c1ccnc3cc(Cl)ccc13)c(C)n2CC(=O)O	4 µL/min/mg	0.0031	1.16	–	–

Structure (SMILES)	microsomal CLint (in vitro [1]; liver microsomes)	fraction unbound at 5 h (in vitro [2]; PPB)	logD (physchem [3]; pH 7.4, LogD7.4)	fraction unbound at 5 h (in vitro [4])	further results
O=C(NCC12CC3CC(CC(C3)C1)C2)c1cc(N2CCNCC2)ccc1Cl	–	–	–	–	microsomal CLint (in vitro [1]; microsomes): 11 µL/min/mg; solubility thermodynamic (physchem [5]): 224 µM (≈ 86.9 µg/mL); logD (physchem [3]; pH 7.4): 1.77; fraction unbound at 5 h (in vitro [2]): 0.0268
C[C@H](CO)Nc1nc(SCc2cccc(F)c2F)nc2nc(NC3CC3)sc12	66 µL/min/mg	0.0122	4.37	–	–
O=C(O)CSCC(=O)Nc1nc(-c2ccccc2)cs1	17.8 µL/min/mg	0.0097	–	–	–
CCc1nc2c(N)nc3ccccc3c2n1CC(C)C	< 3 µL/min/mg	0.117	–	–	–
CC(=O)N[C@@H](Cc1ccccc1)C(=O)N[C@H]1CCCNC(=O)[C@H](CCCNC(=N)N)NC(=O)[C@H](Cc2c[nH]c3ccccc23)NC(=O)[C@@H](CC2CCCCC2)NC(=O)[C@@H]2CCCN2C1=O	–	–	–	0.163	–
OCC(CO)Nc1nc(SCc2cccc(F)c2F)nc2nc(NC3CC3)sc12	46 µL/min/mg	0.051	3.11	–	–
Nc1nc2c(c(N3CC[C@@H](N)C3)n1)CCCc1ccccc1-2	–	–	–	0.437	–
O=C1Nc2nc(-c3c(O)cccc3OCC3CC3)cc([C@@H]3CCCNC3)c2CO1	–	–	–	0.124	–
O=C(CC12CC3CC(CC(C3)C1)C2)Nc1cccc2c(=O)n(C[C@H]3CCCN3)ccc12	–	–	–	0.151	–
Cc1cc(Nc2cncc(N[C@@H](C)c3ccc(F)cn3)n2)[nH]n1	34.7 µL/min/mg	0.22	–	–	–
Cc1nc(C(F)(F)F)ccc1C(=O)Nc1ccc(Cl)c(-c2nc3ccccc3[nH]2)c1	–	–	–	0.0948	–
Cc1cc(Nc2cncc(N[C@@H](C)c3ncc(F)cn3)n2)n[nH]1	15.8 µL/min/mg	0.0854	–	–	–
N#CN=C(N)c1sc(Nc2ccccc2)nc1N	< 3 µL/min/mg	0.103	2.91	–	–
CC1=C(CC(=O)NCc2ccc(C(=N)N)cc2)C(=O)N(NS(=O)(=O)c2c(C)cccc2Cl)CC1	–	–	–	0.54	–
N=C(N)c1cc2c(-c3ccccc3)cccc2s1	5 µL/min/mg	0.101	1.27	–	–
N#CC1=C2C(=NC1=O)c1cccc3c(N4CCSCC4)ccc2c13	115 µL/min/mg	0.0139	3.22	–	–
CN1CCC[C@@H]1Cc1c[nH]c2ccc(Nc3ncccc3[N+](=O)[O-])cc12	–	–	–	0.387	–
O=C(NO)c1ccc(NS(=O)(=O)c2ccccc2)cc1	12 µL/min/mg	–	0.75	–	solubility thermodynamic (physchem [5]): 316 µM (≈ 92.4 µg/mL)
CC(C)NC(=O)c1ccc2c(Nc3ccc(Cl)cc3)nc(N3CCOCC3)nc2c1	< 3 µL/min/mg	0.0051	2.78	–	–
C[C@@H]1CN(Cc2ccc(F)cc2)CCN1C(=O)COc1ccc(Cl)cc1NC(N)=O [BX 471 FREE BASE]	21 µL/min/mg	–	–	–	fraction unbound at 5 h (in vitro [2]): 0.0205
O=c1ncn2nc(Sc3ccc(F)cc3F)ccc2c1-c1c(Cl)cccc1Cl [NEFLAMAPIMOD]	3 µL/min/mg	–	2.74	–	solubility thermodynamic (physchem [5]): 18.6 µM (≈ 8.11 µg/mL)
CNCCC(Oc1ccccc1OC)c1ccccc1 (stereo unspecified) [NISOXETINE]	< 3 µL/min/mg	0.483	0.22	–	–
COc1cc(NC(C)CCCN)c2ncccc2c1 (stereo unspecified) [PRIMAQUINE]	< 3 µL/min/mg	0.403	–	–	–
